According to ChEMBL document CHEMBL5465560, “Selectivity Literature for EUbOPEN Chemogenomic Library” (2024):

Assays:
[1] = molecular target: Mitogen-activated protein kinase kinase kinase 20 (Homo sapiens) (UniProt Q9NYL2); assay: Selectivity interaction (Kinase panel (KiNativ target engagement assay in Jurkat cells)) EUB0001635a MAP3K20; assay type: cell-based; details: Selectivity number of off-targets 0.0, Selectivity number of targets 233.0, Source Knowledge https://www.sciencedirect.com/science/article/pii/S2451945619300674?via%3Dihub, at 1 µM
[2] = molecular target: NT-3 growth factor receptor (Homo sapiens, UniProt Q16288); assay: Selectivity interaction (KinomeScan (DiscoverX)) EUB0000045b NTRK3
Chain of NT-3 growth factor receptor (Q16288 32-839 limits assumed): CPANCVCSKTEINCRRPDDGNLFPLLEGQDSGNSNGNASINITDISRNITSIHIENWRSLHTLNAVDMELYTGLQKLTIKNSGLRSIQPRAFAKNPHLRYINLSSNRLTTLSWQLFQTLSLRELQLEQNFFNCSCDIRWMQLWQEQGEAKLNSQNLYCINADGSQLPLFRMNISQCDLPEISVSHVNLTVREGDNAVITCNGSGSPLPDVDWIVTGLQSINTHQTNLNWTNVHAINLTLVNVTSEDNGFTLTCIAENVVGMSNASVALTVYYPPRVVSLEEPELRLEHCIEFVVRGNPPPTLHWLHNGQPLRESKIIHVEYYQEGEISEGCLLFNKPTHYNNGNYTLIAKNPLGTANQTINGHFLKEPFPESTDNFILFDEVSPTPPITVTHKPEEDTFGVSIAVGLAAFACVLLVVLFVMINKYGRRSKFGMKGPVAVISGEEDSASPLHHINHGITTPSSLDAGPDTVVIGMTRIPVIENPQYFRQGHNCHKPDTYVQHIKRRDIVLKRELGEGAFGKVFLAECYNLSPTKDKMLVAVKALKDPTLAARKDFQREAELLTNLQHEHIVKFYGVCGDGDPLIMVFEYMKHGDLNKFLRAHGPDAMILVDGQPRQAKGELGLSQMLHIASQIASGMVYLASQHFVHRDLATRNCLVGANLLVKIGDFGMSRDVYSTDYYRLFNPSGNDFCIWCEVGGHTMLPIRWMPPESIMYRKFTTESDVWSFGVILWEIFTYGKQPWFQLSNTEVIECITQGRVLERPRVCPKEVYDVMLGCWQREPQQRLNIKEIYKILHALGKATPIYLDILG

[3] = molecular target: CDK17/Cyclin-Y (Homo sapiens) (UniProt Q00537+Q8ND76); assay: Selectivity interaction (Kinase panel (Z-LYTE Assay)) EUB0001632a CDK17; assay type: protein-complex assay; details: at 10 µM
Chain of CDK17/Cyclin-Y (Homo sapiens) (Q00537 whole entry): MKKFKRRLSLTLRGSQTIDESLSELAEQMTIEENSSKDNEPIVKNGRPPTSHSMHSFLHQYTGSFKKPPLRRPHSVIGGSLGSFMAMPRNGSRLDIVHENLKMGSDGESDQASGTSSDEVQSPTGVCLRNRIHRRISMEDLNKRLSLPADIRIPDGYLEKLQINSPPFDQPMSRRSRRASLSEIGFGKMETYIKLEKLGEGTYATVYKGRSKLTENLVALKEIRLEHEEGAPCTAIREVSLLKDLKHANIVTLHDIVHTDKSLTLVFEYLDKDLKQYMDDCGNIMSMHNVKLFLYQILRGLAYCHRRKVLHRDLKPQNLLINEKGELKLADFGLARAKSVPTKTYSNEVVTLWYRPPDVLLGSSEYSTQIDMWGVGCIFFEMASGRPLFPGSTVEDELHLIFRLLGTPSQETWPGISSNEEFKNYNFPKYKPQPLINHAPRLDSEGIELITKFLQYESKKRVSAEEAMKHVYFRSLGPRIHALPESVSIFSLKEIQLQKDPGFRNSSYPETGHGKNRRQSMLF
Chain of CDK17/Cyclin-Y (Homo sapiens) (Q8ND76 2-341 partner limits assumed): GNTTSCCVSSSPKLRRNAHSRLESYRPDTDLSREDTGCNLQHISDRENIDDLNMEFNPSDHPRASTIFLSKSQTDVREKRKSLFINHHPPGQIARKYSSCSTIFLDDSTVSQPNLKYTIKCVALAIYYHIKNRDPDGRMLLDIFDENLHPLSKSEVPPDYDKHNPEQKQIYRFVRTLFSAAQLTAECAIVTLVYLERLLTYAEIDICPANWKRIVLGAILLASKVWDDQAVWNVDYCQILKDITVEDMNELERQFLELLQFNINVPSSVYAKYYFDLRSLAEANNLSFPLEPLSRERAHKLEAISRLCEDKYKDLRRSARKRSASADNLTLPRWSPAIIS

[4] = molecular target: Mitogen-activated protein kinase kinase kinase kinase 4 (Homo sapiens, UniProt O95819); assay: Selectivity interaction (Kinase panel (Z-LYTE Assay)) EUB0001632a MAP4K4; details: at 10 µM
Chain of Mitogen-activated protein kinase kinase kinase kinase 4 (O95819 2-1239 limits assumed): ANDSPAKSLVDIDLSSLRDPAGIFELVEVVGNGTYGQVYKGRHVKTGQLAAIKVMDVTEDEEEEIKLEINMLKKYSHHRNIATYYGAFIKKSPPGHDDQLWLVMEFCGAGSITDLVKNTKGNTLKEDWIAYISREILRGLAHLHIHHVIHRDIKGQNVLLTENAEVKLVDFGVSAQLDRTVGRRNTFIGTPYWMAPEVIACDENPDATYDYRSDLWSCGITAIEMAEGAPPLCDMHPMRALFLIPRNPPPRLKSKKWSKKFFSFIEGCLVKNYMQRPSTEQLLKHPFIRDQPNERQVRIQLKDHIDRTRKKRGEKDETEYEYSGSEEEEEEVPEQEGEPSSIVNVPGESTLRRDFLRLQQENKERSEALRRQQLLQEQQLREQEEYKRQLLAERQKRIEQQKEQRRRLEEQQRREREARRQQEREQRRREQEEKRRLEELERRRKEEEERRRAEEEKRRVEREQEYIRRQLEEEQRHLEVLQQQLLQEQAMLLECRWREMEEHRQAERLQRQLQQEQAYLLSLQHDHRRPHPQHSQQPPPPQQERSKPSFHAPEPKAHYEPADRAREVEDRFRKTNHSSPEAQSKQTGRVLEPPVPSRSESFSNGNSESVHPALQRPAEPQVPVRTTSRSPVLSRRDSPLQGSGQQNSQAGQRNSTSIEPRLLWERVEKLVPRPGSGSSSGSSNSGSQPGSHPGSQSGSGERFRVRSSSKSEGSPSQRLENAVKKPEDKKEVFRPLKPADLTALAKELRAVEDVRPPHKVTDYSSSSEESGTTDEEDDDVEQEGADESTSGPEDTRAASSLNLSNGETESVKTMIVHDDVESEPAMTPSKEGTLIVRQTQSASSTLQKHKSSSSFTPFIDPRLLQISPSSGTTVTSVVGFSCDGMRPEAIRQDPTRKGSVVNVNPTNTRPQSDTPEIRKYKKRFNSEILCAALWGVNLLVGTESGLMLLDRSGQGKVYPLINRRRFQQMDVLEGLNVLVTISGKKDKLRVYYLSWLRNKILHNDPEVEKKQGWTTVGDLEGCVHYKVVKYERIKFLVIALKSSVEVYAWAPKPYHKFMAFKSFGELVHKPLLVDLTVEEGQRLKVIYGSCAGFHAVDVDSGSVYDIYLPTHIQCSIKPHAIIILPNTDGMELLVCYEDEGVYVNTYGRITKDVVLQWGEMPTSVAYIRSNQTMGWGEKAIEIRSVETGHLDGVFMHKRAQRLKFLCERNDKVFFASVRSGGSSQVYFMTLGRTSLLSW

[5] = molecular target: Histone-lysine N-methyltransferase KMT5C (Homo sapiens) (UniProt Q86Y97); assay: Selectivity interaction (Methyltransferase screen (radiometric assays, panel of 8 PRMTs, 21 protein lysine methyltransferases, 3 DNA methyltransferases, and one RNA methyltransferase)) EUB0000271b SUV420H2
Chain of Histone-lysine N-methyltransferase KMT5C (Homo sapiens) (Q86Y97 whole entry, looked up): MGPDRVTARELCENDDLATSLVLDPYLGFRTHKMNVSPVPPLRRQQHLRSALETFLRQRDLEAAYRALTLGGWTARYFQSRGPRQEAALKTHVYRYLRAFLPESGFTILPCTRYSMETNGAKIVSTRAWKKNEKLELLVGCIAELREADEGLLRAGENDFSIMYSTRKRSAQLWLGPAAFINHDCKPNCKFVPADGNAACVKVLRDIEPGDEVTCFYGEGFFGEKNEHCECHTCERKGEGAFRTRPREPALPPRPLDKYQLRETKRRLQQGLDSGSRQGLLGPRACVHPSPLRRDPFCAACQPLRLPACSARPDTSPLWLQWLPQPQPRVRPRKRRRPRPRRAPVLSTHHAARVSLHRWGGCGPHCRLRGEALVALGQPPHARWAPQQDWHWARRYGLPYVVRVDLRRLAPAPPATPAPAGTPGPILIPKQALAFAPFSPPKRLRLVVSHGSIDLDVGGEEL

[6] = molecular target: Mitogen-activated protein kinase 11 (Homo sapiens) (UniProt Q15759); assay: Selectivity interaction (Kinase screening (Upstate/Millipore)) EUB0000604a MAPK11
[7] = molecular target: Serine/threonine-protein kinase 16 (Homo sapiens, UniProt O75716); assay: Selectivity interaction (KinomeScan (DiscoverX)) EUB0001049a STK16; details: at 1 µM
[8] = tested on: Receptor-type tyrosine-protein kinase FLT3 (Homo sapiens), P36888 [UNDEFINED MUTATION]; assay: Selectivity interaction (KinomeScan (DiscoverX)) EUB0001049a FLT3; details: at 1 µM
[9] = molecular target: Ribosomal protein S6 kinase alpha-3 (Homo sapiens, UniProt P51812); assay: Selectivity interaction (KinomeScan (DiscoverX)) EUB0001619a RPS6KA3; details: at 1 µM
[10] = molecular target: Ephrin type-A receptor 5 (Homo sapiens) (UniProt P54756); assay: Selectivity interaction (KinomeScan (DiscoverX)) EUB0000607a EPHA5; details: at 10 µM
[11] = molecular target: Receptor-type tyrosine-protein kinase FLT3 (Homo sapiens) (UniProt P36888); assay: Selectivity interaction (SelectScreen Kinase Profiling (Thermo Fisher Scientific)) EUB0001558a FLT3; details: at 1 µM
[12] = molecular target: Citron Rho-interacting kinase (Homo sapiens) (UniProt O14578); assay: Selectivity interaction (KinomeScan (DiscoverX)) EUB0000618a CIT; details: at 10 µM
[13] = molecular target: Tyrosine-protein kinase BTK (Homo sapiens, UniProt Q06187); assay: Selectivity interaction (ActivX KiNativ screen (kinase selectivity in THP-1 cell lysates)) EUB0000639a BTK; assay type: subcellular; details: lysate
Chain of Tyrosine-protein kinase BTK (Q06187 whole entry): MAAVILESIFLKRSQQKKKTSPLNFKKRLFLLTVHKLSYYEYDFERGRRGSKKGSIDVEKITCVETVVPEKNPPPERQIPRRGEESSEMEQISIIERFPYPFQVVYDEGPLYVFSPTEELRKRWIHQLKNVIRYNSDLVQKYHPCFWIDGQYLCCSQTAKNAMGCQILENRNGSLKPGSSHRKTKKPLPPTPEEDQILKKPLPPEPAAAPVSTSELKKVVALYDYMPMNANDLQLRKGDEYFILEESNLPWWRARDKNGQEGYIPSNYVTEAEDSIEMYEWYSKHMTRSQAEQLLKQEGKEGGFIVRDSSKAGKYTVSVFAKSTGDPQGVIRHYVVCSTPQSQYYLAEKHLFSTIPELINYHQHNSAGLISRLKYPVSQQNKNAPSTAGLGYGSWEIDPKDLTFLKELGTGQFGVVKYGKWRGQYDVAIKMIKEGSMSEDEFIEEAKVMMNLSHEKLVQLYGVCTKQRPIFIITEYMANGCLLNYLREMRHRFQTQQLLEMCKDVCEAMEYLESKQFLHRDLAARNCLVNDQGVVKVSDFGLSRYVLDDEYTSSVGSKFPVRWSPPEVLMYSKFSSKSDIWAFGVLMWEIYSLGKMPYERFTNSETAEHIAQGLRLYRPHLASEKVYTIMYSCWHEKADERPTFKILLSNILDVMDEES

[14] = molecular target: Serine/threonine-protein kinase 10 (Homo sapiens) (UniProt O94804); assay: Selectivity interaction (KinomeScan (DiscoverX)) EUB0000655a STK10; details: at 10 µM
[15] = molecular target: Protein-tyrosine kinase 2-beta (Homo sapiens) (UniProt Q14289); assay: Selectivity interaction (KinomeScan (DiscoverX)) EUB0000655a PTK2B; details: at 10 µM
Chain of Protein-tyrosine kinase 2-beta (Homo sapiens) (Q14289 whole entry, looked up): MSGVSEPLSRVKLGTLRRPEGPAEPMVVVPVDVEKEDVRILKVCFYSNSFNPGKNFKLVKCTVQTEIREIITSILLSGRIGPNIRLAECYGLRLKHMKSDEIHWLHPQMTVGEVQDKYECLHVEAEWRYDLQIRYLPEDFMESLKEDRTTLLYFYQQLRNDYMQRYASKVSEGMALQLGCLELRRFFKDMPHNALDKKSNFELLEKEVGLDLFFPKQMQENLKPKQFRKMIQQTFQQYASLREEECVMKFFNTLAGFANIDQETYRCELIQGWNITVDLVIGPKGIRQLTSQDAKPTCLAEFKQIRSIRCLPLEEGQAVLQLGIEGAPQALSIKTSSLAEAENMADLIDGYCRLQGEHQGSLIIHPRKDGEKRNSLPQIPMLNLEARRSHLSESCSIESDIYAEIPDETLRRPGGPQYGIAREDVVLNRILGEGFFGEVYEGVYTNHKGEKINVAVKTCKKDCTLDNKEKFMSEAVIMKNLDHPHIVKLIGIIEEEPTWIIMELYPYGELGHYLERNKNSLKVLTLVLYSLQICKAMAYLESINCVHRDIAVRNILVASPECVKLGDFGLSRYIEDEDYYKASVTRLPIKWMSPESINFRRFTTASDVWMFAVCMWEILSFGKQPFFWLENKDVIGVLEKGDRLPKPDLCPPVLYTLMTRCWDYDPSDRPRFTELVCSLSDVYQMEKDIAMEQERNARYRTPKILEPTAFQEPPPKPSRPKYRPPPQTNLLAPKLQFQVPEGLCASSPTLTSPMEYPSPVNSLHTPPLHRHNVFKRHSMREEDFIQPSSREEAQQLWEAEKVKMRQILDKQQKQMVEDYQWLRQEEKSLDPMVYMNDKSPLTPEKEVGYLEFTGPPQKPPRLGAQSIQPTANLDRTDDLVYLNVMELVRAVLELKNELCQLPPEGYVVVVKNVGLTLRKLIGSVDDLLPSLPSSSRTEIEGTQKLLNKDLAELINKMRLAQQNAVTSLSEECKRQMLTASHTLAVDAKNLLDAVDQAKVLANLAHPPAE

[16] = molecular target: T1, Serine/threonine-protein kinase Nek3 (Homo sapiens) (UniProt P51956); assay: Selectivity interaction (KinomeScan (DiscoverX)) EUB0000655a NEK3; details: at 10 µM
T1 sequence (whole entry): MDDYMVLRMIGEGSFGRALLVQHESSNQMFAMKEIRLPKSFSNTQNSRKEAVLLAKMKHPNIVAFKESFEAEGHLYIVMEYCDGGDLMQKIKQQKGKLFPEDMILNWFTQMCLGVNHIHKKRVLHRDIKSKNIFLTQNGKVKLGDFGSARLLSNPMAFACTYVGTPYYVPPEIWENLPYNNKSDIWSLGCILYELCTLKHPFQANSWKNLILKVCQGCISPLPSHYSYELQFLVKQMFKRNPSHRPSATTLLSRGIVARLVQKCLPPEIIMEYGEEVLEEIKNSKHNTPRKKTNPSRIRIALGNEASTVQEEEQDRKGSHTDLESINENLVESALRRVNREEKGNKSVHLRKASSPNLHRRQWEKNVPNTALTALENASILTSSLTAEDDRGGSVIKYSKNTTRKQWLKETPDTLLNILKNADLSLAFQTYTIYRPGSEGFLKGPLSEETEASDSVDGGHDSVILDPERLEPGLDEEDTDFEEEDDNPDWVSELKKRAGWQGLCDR

[17] = molecular target: T2, Phosphorylase b kinase gamma catalytic chain, liver/testis isoform (Homo sapiens) (UniProt P15735); details: at 10 µM
T2 sequence (whole entry): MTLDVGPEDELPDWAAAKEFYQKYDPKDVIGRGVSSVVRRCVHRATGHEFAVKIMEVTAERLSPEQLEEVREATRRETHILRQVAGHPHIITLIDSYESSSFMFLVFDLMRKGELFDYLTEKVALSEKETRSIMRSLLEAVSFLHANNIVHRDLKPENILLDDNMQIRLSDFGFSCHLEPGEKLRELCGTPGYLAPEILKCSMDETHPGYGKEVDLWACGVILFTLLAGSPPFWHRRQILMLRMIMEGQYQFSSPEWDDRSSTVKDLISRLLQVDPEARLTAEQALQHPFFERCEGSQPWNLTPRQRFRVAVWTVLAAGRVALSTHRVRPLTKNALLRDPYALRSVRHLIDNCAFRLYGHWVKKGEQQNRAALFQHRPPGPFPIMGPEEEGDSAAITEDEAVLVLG

[18] = molecular target: Dual specificity testis-specific protein kinase 1 (Homo sapiens) (UniProt Q15569); assay: Selectivity interaction (Ambit KINOMEscan and KiNATiv profiling in Jurkat cells) EUB0000090b TESK1; assay type: cell-based; details: at 1 µM

C=CC(=O)Nc1ccc(C(=O)Nc2[nH]nc3c2CN(C(=O)N[C@H](CN(C)C)c2ccccc2)C3(C)C)cc1
% of engagement [1]: -9.7%

C=CC(=O)Nc1cc(-n2c(=O)ccc3cnc4ccc(-c5ccc(NS(C)(=O)=O)cc5)cc4c32)ccc1C
% of control ([2]; at 1 µM): 100% | % of control ([2]; at 10 µM): 100%

Cn1cc(-n2cnc3c(NCc4nc5cc(Cl)c(Cl)cc5[nH]4)nc(N4CCOCC4)nc32)cn1
% of control [3]: 8.66% | % of control [4]: 4.98%

Cc1cc(C)cc([C@@H]2c3cc(C)ccc3NC(=O)CN2C(=O)c2ccc(Br)s2)c1
% of activity ([5]; at 1 µM): 102% | % of activity ([5]; at 10 µM): 102%

Cc1cnc(Nc2ccc(F)cc2Cl)nc1-c1c[nH]c(C(=O)N[C@H](CO)c2cccc(Cl)c2)c1
% of inhibition [6]: 25%

COc1cc(Nc2nc(C)cc(-c3cnn4nc(OC)ccc34)n2)cc(C(F)(F)F)c1
% of control [7]: 81% | % of control [8]: 73%

N#Cc1cccc(-c2c[nH]c3ncnc(N4CCOCC4)c23)c1
% of control [9]: 38%

CNC(=O)Nc1ccc(-c2nc(N3CC4CCC(C3)O4)c3cnn(C4CCC5(CC4)OCCO5)c3n2)cc1
% of control [10]: 92%

CC(C)(O)[C@H](F)CN1Cc2cc(NC(=O)c3cnn4cccnc34)c(N3CCOCC3)cc2C1=O
% of inhibition [11]: 90.8%

O[C@H]1CC[C@H](Nc2ncc3nc(Nc4c(F)cc(F)cc4F)n([C@H]4CCOC4)c3n2)CC1
% of control [12]: 96%

CC[C@@H]1[C@H](F)C(=O)N[C@@H]1COc1nccc2cc(C(N)=O)c(OC)cc12 [ZIMLOVISERTIB]
% of inhibition ([13]; at 0.01 µM): -9.7% | % of inhibition ([13]; at 0.04 µM): -8.8% | % of inhibition ([13]; at 0.2 µM): 2.6% | % of inhibition ([13]; at 1 µM): 11.9% | % of inhibition ([13]; at 5 µM): 0.7%

CN(C)CCOc1ccc(-c2nc(-c3ccncc3)c(-c3ccc4c(c3)CC/C4=N\O)[nH]2)cc1
% of control [14]: 0.6% | % of control [15]: 100% | % of control [16]: 71%

CCN(CC)CCCCNc1ncc2cc(-c3cc(OC)cc(OC)c3)c(NC(=O)NC(C)(C)C)nc2n1
% of control [17]: 100%

CN(C)C/C=C/C(=O)Nc1ccc(C(=O)N2CCCC(Nc3ncc(Cl)c(-c4c[nH]c5ccccc45)n3)C2)cc1 (centres undefined)
% of control [18]: 86%
